# Test results reported in PMC10176470, “Engaging a Non-catalytic Cysteine Residue Drives Potent and Selective Inhibition of Caspase-6” (Journal of the American Chemical Society, 2023).
# Key:
# caspase-3 (C3) = molecular target: T1, caspase-3 (C3) (Homo sapiens, UniProt P42574); assay: Caspase-3 biochemical activity assay with fluorogenic substrate; settings: read-out: Casp-3 IC50
# T1 sequence (P42574 29-175 limits assumed): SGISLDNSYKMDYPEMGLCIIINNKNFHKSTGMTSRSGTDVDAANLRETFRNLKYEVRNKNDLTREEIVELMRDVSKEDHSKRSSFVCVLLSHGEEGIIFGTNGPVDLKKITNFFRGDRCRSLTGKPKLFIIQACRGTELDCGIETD
# Text: Error bars represent the standard deviation of thre replicate measurements. […] Activity measured by the cleavage of aminofluorocoumarin-labeled peptides (see the Supporting Information for sequences). C = caspase.
# C6 small subunit = molecular target: T2, C6 small subunit (Homo sapiens, UniProt P55212); assay: Disulfide tethering assay (% labeling by LC/MS), small subunit; format: binding
# T2 construct: 194-293-Leu-Glu-His6 (SS) from caspase-6 cDNA (Origene); Leu-Glu-His6 (C); made in house; host or cells: E. coli Rosetta 2 pLysS DE3
# T2 sequence (P55212 194-293): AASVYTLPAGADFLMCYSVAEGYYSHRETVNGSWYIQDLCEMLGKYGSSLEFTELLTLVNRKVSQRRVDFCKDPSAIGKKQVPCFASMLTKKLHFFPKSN
# T2 sequence (P55212 30-179): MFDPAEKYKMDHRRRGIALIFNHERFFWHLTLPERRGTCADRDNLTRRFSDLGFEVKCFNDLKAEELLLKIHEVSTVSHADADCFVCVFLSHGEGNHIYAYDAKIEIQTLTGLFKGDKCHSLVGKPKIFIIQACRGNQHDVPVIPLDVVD
# C6 large subunit = molecular target: T3, C6 large subunit (Homo sapiens, UniProt P55212); assay: Disulfide tethering assay (% labeling by LC/MS), large subunit; format: binding
# T3 construct: Residues 30-179 (LS); made in house; host or cells: E. coli Rosetta 2 pLysS DE3
# T3 sequence (P55212 30-179): as above
# T3 sequence (P55212 194-293): as the sequence (P55212 194-293) above
# [1] = test system: lamin A cleavage by caspase-6 in SK-N-AS cells; assay: Lamin cleavage assay (in-cell western after staurosporine induction); format: cell-based; settings: Homo sapiens, 1 h compound then 10 μM staurosporine
# Description: This assay measured lamin A cleavage under staurosporine-induced caspase activation; while staurosporine activates all executioner caspases, lamin A cleavage monitors only the activity of C6. After 1 h of preincubation with the compound and 3 h of incubation with staurosporine, lamin A cleavage was measured by in-cell western.
# Inhibition of lamin A cleavage in SK-N-AS cells after staurosporine induction of caspases. Cells were treated with the indicated compound for 1 h before the addition of 10 μM staurosporine for 4 h. Error bars indicate the standard deviation from n = 4 replicate samples.
# serves as a useful target-engagement assay in cells. We used the procedure of Mintz, et al, with the following modifications: SK-N-AS cells were seeded at 10,000 cells/well in black clear bottom 384-
# well plates coated with poly-D-lysine and allowed to adhere overnight. Wells were treated with
# varying doses of casapase-6 inhibitor, from 5 µM – 0.1 nM in 2-fold dilutions. After one hour, cells
# were treated with 10 µM staurosporine to induce apoptosis and activation of multiple caspases. 3
# hours after staurosporine addition, cells were fixed and permeabilized before in-cell westerns were
# performed, as described.9
SMILES,IC50 (caspase-3 (C3)),C6 % labeling (MS) small subunit (C6 small subunit),C6 % labeling (MS) large subunit (C6 large subunit),IC50 [1]
C=CS(=O)(=O)N1C[C@H](C(=O)Nc2ccc(OC(F)(F)F)cc2)C[C@@H](c2ccccc2)C1 (racemic) [(±)-3-t],> 500 µM,,,
O=C(NCCS)[C@H]1CCCN(C(=O)Cc2ccc(OC(F)(F)F)cc2)C1 [compound 1],,76%,2%,
C=CS(=O)(=O)N1C[C@H](C(=O)Nc2ccc(OC(F)(F)F)cc2)C[C@H](c2ccccc2)C1 (racemic) [(±)-3-c],> 500 µM,,,
C=CS(=O)(=O)N1CCC[C@@H](C(=O)Nc2ccc(OC(F)(F)F)cc2)C1 [2a],> 500 µM,,,14.2 ± 2.4 µM
